For three compounds, remaining binding results are on record in patent US11208412B2 (DAEGU-GYEONGBUK MEDICAL INNOVATION FOUNDATION, priority 2017, dated 2021).

Common to all, as to assay: Kinase selectivity, DiscoverX scanMAX Kinase assay panel (% control)
Holding throughout (type): binding

Assay [1] concerns the target T1, kinases of the scanMAX Kinase assay panel (Homo sapiens, UniProt Q13976).
T1 construct: purchased DiscoverX Co. (contract measurement) scanMAX Kinase assay panel
T1 sequence (Q13976 1-671): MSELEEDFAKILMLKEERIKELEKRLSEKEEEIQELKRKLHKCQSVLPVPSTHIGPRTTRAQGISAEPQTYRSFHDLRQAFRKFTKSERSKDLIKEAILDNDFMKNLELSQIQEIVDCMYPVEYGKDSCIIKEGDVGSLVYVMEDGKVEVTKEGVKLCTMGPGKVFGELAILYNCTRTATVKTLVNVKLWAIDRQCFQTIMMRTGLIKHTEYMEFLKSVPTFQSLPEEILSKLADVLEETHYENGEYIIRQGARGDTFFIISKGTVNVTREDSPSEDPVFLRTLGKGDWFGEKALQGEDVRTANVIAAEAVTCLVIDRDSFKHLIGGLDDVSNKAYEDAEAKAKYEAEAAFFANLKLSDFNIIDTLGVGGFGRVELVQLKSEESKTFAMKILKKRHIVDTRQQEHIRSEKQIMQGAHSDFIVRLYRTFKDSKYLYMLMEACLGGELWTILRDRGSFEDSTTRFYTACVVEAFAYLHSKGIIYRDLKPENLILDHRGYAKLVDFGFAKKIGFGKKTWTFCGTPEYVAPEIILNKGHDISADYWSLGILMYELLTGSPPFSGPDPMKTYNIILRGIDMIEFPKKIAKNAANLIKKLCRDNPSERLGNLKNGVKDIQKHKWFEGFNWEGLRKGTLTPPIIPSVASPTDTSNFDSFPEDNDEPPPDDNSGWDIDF
The note with it: PRKG1; 1 uM. A digest of the protocol: (§1)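 Compounds were tested at 1 uM (in DMSO) against each panel kinase. % control was calculated as (compound − positive control)/(negative control − positive control)×100, where the positive control gives 0% and DMSO gives 100%. Activity toward a kinase was called at % control <35%.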

The target of assay [2] is T2, kinases of the scanMAX Kinase assay panel (Homo sapiens, UniProt Q8IYT8).
T2 construct: purchased DiscoverX Co. (contract measurement) scanMAX Kinase assay panel
T2 sequence (Q8IYT8 1-1036): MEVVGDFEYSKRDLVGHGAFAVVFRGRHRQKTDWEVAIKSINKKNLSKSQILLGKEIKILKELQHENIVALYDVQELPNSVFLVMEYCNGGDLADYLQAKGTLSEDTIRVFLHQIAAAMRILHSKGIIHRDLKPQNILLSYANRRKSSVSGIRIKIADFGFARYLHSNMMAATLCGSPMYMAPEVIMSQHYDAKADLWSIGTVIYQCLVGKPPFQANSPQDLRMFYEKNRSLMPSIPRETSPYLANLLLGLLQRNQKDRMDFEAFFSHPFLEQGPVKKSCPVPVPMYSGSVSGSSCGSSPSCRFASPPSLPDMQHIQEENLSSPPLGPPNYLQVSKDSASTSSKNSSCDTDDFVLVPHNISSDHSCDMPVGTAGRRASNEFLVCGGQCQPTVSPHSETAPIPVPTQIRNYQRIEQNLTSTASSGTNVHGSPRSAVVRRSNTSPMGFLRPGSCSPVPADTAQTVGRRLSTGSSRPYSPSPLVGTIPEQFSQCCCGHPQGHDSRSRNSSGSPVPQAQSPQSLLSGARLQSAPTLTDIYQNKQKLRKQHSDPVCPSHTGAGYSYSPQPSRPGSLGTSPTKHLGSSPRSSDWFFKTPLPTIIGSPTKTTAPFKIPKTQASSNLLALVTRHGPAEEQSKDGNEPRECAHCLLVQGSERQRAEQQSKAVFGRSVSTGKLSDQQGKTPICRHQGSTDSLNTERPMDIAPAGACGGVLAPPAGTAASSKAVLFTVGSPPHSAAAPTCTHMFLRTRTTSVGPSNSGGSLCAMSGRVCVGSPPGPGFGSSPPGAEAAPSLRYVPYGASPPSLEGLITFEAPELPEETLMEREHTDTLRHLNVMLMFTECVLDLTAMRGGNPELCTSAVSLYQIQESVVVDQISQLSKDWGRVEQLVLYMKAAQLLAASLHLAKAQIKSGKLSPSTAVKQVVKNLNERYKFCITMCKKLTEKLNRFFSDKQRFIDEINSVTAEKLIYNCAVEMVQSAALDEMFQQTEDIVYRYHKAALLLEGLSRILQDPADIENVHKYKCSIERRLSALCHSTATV
The note with it: kinase ULK2; 1 uM in DMSO. In a few lines: as §1

Assay [3] addresses T3, kinases of the scanMAX Kinase assay panel (Homo sapiens, UniProt P00533, L858R).
T3 construct: purchased DiscoverX Co. (contract measurement) scanMAX Kinase assay panel
Conditions: EGFR(L858R); 1 uM. A digest of the protocol: as §1

Assay [4] has as its target T4, kinases of the scanMAX Kinase assay panel (Homo sapiens, UniProt P32298).
T4 construct: purchased DiscoverX Co. (contract measurement) scanMAX Kinase assay panel
The note with it: GRK4; 1 uM. A digest of the protocol: as §1

The target of assay [5] is T5, kinases of the scanMAX Kinase assay panel (Homo sapiens, UniProt P57058).
T5 construct: purchased DiscoverX Co. (contract measurement) scanMAX Kinase assay panel
T5 sequence (P57058 1-714): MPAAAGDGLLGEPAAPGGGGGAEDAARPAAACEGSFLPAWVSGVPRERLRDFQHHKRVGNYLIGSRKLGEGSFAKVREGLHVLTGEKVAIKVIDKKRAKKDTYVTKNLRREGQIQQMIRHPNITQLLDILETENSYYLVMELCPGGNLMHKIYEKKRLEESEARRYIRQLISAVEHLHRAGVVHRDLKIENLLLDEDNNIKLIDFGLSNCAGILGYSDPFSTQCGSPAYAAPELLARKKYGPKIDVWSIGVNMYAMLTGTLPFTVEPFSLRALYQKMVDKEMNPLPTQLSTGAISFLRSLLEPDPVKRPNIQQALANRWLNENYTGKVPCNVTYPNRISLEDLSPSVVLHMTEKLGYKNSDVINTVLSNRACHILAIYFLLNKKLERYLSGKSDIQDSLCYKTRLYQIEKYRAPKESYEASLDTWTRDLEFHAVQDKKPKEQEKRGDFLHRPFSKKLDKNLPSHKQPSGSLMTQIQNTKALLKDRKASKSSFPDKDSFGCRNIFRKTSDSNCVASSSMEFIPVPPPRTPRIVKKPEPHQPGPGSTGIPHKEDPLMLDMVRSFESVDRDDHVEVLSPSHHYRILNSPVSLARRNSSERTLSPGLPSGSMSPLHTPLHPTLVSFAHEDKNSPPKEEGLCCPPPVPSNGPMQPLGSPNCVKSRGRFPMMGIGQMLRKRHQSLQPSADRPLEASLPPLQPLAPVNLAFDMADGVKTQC
The note with it: HUNK; 1 uM. A digest of the protocol: as §1

The structures appear in SMILES notation.

T4 sequence (P32298 whole entry): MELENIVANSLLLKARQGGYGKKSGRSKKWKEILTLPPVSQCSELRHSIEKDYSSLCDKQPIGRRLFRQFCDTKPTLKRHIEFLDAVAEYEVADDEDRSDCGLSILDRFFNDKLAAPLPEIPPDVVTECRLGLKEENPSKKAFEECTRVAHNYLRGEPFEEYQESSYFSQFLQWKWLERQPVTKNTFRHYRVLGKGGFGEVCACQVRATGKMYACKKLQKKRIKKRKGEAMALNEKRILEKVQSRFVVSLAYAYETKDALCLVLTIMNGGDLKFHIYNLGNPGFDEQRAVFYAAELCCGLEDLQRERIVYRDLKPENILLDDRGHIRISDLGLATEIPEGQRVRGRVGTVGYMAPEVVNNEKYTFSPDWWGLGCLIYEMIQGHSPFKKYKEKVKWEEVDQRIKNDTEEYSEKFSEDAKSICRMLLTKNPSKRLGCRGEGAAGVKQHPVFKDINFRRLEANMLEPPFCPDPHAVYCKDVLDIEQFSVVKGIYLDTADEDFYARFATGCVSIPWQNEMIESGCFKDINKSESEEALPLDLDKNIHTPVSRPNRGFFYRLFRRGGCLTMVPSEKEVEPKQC
T3 sequence (P00533 25-1210 L858R): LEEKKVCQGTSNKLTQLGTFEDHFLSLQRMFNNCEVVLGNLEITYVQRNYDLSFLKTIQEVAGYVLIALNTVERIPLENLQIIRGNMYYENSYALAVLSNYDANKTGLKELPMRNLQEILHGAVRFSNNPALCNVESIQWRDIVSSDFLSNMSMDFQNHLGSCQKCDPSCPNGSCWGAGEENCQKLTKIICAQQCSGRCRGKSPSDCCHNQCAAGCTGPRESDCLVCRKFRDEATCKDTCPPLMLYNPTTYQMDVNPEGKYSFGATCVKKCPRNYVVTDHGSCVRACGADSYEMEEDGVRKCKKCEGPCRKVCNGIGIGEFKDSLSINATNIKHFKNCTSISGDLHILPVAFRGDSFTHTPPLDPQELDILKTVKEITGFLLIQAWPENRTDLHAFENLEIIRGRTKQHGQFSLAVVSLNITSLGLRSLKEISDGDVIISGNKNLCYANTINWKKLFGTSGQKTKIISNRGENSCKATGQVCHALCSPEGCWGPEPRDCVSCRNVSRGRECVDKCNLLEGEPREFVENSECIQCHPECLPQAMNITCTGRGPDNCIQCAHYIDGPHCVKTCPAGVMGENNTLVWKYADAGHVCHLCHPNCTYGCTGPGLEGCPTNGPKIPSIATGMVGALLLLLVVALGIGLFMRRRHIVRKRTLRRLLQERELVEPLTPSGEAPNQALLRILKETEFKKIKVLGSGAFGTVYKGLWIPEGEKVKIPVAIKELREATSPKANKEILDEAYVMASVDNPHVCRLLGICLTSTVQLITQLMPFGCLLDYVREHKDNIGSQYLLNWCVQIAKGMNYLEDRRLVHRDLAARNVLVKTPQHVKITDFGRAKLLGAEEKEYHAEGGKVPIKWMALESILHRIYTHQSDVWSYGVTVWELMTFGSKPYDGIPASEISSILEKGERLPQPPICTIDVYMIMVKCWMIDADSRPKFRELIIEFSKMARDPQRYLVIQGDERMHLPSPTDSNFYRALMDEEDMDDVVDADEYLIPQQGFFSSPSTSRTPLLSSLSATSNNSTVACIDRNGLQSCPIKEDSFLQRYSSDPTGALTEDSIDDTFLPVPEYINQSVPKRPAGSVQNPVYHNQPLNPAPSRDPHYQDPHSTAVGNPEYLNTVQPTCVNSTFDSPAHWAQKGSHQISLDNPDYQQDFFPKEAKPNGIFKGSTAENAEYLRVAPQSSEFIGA

For the compound `CNc1nc(Nc2ccc(C(=O)N3CCOCC3)cc2OC)nc2[nH]cc(C#N)c12` [Example 1, 2-((2-methoxy-4-(morpholine-4-carbonyl)phenyl)amino)-4-(methylamino)-7H-pyrrolo[2,3-d]pyrimidine-5-carbonitrile], the remaining binding at 1 µM came out at 83% in assay [1]; 75% in assay [2]; 96% in assay [3]; 92% in assay [4]; 5.3% in assay [5].
As to `CC1(Nc2nc(Nc3cnn([C@H]4CCN(C5COC5)C[C@@H]4F)c3Cl)nc3[nH]cc(C#N)c23)CC1` [Example 52, 2-((5-chloro-1-((3S,4S)-3-fluoro-1-(oxetane-3-yl)piperidine-4-yl)-1H-pyrazole-4-yl)amino)((1-methylcyclopropyl)amino)-7H-pyrrolo[2,3-d]pyrimidine-5-carbonitrile], the remaining binding at 1 µM in assay [1] came out at 79%; in assay [2], 15%; in assay [3], 41%; in assay [4] it was 1.6%; in assay [5], 51%.
Regarding `CCNc1nc(Nc2ccc(C(=O)N3CCC(N4CCOCC4)CC3)cc2OC)nc2[nH]cc(C(F)(F)F)c12` [Example 104, (4-((4-(ethylamino)-5-(trifluoromethyl)-7H-pyrrolo[2,3-d]pyrimidine-2-yl)amino)-3-methoxyphenyl)(4-morpholinopiperidine-1-yl)methanone], the remaining binding at 1 µM in assay [1] amounted to 84%; in assay [2] it was 100%; in assay [3], 89%; in assay [4], 100%; in assay [5] it was 0.7%.
